# Laboratory results published in the supplement of paper PMC11061612.
# Legend:
# [1] = compound: Cc1cc2ncnn2cc1Nc1ncc2c(n1)n(C1CCOCC1)c(=O)n2C [AZD7648]; conditions: max 10 µM
# Method in brief: (§1)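 Following 24 hours at 37°C and 5% CO2, cancer cell lines in 1536-well plates with 7.5 μl DMEM/F12 or RPMI and 10% FBS were dosed for 72 hours, final DMSO typically being 0.2%. CellTiter-Glo 2.0 luminescence, scaled between blank-well and DMSO-well means, gave the viability readout. Dose responses were fitted to a two-parameter logistic curve with a non-linear mixed effects model, and the single-agent IC50 was derived from this fit.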
# [2] = compound: CN(CC[C@H](CSC1=CC=CC=C1)NC2=C(C=C(C=C2)S(=O)(=O)NC(=O)C3=CC=C(C=C3)N4CCC(CC4)[C@H](C5=CC=CC=C5C6=CC=C(C=C6)Cl)O)S(=O)(=O)C(F)(F)F)CCO [AZD4320]; conditions: max 1 µM
# Method in brief: as §1
# [3] = compound: COc1cccc(OCCCN)c1-c1cc(Nc2cnc(C#N)cn2)n[nH]1 [Prexasertib]; conditions: max 1 µM
# Method in brief: as §1
# [4] = compound: C[C@@H]1COCCN1C2=NC(=NC(=C2)C3(CC3)[S@](=N)(=O)C)C4=C5C=CNC5=NC=C4 [AZD6738]; conditions: max 10 µM
# Method in brief: as §1
# [5] = compound: C[C@@H](Nc1cc(F)cc(F)c1)c1cc(C(=O)N(C)C)cc2c(=O)cc(N3CCOCC3)oc12 [AZD8186]; conditions: max 3 µM
# Method in brief: as §1
# [6] = compound: C=CCn1c(=O)c2cnc(Nc3ccc(N4CCN(C)CC4)cc3)nc2n1-c1cccc(C(C)(C)O)n1 [AZD1775]
# Method in brief: as §1
# [7] = compound: COc1cccc2c1C(=O)c1c(O)c3c(c(O)c1C2=O)C[C@@](O)(C(=O)CO)C[C@@H]3O[C@H]1C[C@H](N)[C@H](O)[C@H](C)O1 [Doxorubicin]; conditions: max 1 µM
# Method in brief: as §1
# [8] = compound: CS(=O)(=O)CCNCc1ccc(-c2ccc3ncnc(Nc4ccc(OCc5cccc(F)c5)c(Cl)c4)c3c2)o1 [Lapatinib]; conditions: max 10 µM
# Method in brief: as §1
# [9] = compound: C[C@@H](Oc1cc(-c2cnn(C3CCNCC3)c2)cnc1N)c1c(Cl)ccc(F)c1Cl [Crizotinib]; conditions: max 10 µM
# Method in brief: as §1
# [10] = compound: Cc1c2c(nn1C)CSCc1cc(n(C)n1)CSc1cc(c3ccccc3c1)OCCCc1c(C(=O)O)n(C)c3c-2c(Cl)ccc13 [AZD5991]; conditions: max 1 µM
# Method in brief: as §1
# [11] = compound: Cn1cnc2c(F)c(Nc3ccc(Br)cc3Cl)c(C(=O)NOCCO)cc21 [Selumetinib]; conditions: max 10 µM
# Method in brief: as §1
# [12] = compound: C[C@@H](c1ccc2nccn2c1)n1nnc2ncc(-c3cnn(C)c3)nc21 [Savolitinib]; conditions: max 1 µM
# Method in brief: as §1
# [13] = compound: COc1nnc2ccc(N3CCC(c4ccc(OCCN5CCN(C)C(=O)[C@H]5C)cc4)CC3)nn12 [AZD5153]; conditions: max 1 µM
# Method in brief: as §1
# [14] = compound: CC1=CN2[C@@H](C1)C=NC3=CC(=C(C=C3C2=O)OC)OCCCCCOC4=C(C=C5C(=C4)N=C[C@@H]6CC(=CN6C5=O)C)OC [SG3199]; conditions: max 0.001 µM
# Method in brief: as §1
# [15] = compound: C1CN(CCC1(C(=O)N[C@@H](CCO)C2=CC=C(C=C2)Cl)N)C3=NC=NC4=C3C=CN4 [Capivasertib]; conditions: max 10 µM
# Method in brief: as §1
# [16] = compound: CC1(C)CCC(CN2CCN(c3ccc(C(=O)NS(=O)(=O)c4ccc(NCC5CCOCC5)c([N+](=O)[O-])c4)c(Oc4cnc5[nH]ccc5c4)c3)CC2)=C(c2ccc(Cl)cc2)C1 [Venetoclax]; conditions: max 1 µM
# Method in brief: as §1
# [17] = compound: Cc1nc(-c2cn3c(n2)-c2ccc(-c4cnn(C(C)(C)C(N)=O)c4)cc2OCC3)n(C(C)C)n1 [Taselisib]; conditions: max 10 µM
# Method in brief: as §1
# [18] = compound: CCc1c2c(nc3ccc(O)cc13)-c1cc3c(c(=O)n1C2)COC(=O)[C@]3(O)CC [SN-38]; conditions: max 0.3 µM
# Method in brief: as §1
# [19] = compound: COc1cc2ncnc(Nc3ccc(F)c(Cl)c3)c2cc1OCCCN1CCOCC1 [Gefitinib]; conditions: max 10 µM
# Method in brief: as §1
# [20] = compound: O=C(c1cc(Cc2n[nH]c(=O)c3ccccc23)ccc1F)N1CCN(C(=O)C2CC2)CC1 [Olaparib]; conditions: max 10 µM
# Method in brief: as §1
# [21] = compound: CC(C)n1c(=O)n(C)c2cnc3cc(F)c(-c4ccc(OCCCN5CCCCC5)nc4)cc3c21 [AZD1390]; conditions: max 0.3 µM
# Method in brief: as §1
# [22] = compound: CN(C)CCCOc1ccc(-c2ccc3ncc4c(c3c2)n(C2CCOCC2)c(=O)n4C)cn1 [AZD0156]
# Method in brief: as §1
# [23] = compound: CC(=O)Nc1cccc(-n2c(=O)n(C3CC3)c(=O)c3c(Nc4ccc(I)cc4F)n(C)c(=O)c(C)c32)c1 [Trametinib]; conditions: max 1 µM
# Method in brief: as §1
# [24] = compound: CC1=C(C(=CC=C1)Cl)NC(=O)C2=CN=C(S2)NC3=CC(=NC(=N3)C)N4CCN(CC4)CCO [Dasatinib]; conditions: max 2 µM
# Method in brief: as §1
# [25] = compound: CCN(CCO)CCCOc1ccc2c(Nc3cc(CC(=O)Nc4cccc(F)c4)[nH]n3)ncnc2c1 [AZD2811]; conditions: max 1 µM
# Method in brief: as §1
# [26] = compound: COc1cc(Nc2ncc3c(n2)-c2ccc(Cl)cc2C(c2c(F)cccc2OC)=NC3)ccc1C(=O)O [Alisertib]; conditions: max 10 µM
# Method in brief: as §1
# [27] = compound: CC(=O)c1c(C)c2cnc(Nc3ccc(N4CCNCC4)cn3)nc2n(C2CCCC2)c1=O [Palbociclib]; conditions: max 10 µM
# Method in brief: as §1
# [28] = compound: NC1(c2ccc(-c3nc4ccn5c(=O)[nH]nc5c4cc3-c3ccccc3)cc2)CCC1 [MK-2206]; conditions: max 10 µM
# Method in brief: as §1
Cell Line,"IC50, cell viability 72 h [1] [µM]","IC50, cell viability 72 h [2] [µM]","IC50, cell viability 72 h [3] [µM]","IC50, cell viability 72 h [4] [µM]","IC50, cell viability 72 h [5] [µM]","IC50, cell viability 72 h ([6]; max 3 µM) [µM]","IC50, cell viability 72 h [7] [µM]","IC50, cell viability 72 h [8] [µM]","IC50, cell viability 72 h [9] [µM]","IC50, cell viability 72 h [10] [µM]","IC50, cell viability 72 h [11] [µM]","IC50, cell viability 72 h [12] [µM]","IC50, cell viability 72 h [13] [µM]","IC50, cell viability 72 h [14] [µM]","IC50, cell viability 72 h [15] [µM]","IC50, cell viability 72 h [16] [µM]","IC50, cell viability 72 h [17] [µM]","IC50, cell viability 72 h [18] [µM]","IC50, cell viability 72 h [19] [µM]","IC50, cell viability 72 h [20] [µM]","IC50, cell viability 72 h [21] [µM]","IC50, cell viability 72 h ([22]; max 3 µM) [µM]","IC50, cell viability 72 h [23] [µM]","IC50, cell viability 72 h [24] [µM]","IC50, cell viability 72 h [25] [µM]","IC50, cell viability 72 h [26] [µM]","IC50, cell viability 72 h [27] [µM]","IC50, cell viability 72 h [28] [µM]","IC50, cell viability 72 h ([6]; max 1 µM) [µM]","IC50, cell viability 72 h ([22]; max 1 µM) [µM]"
MES-SA (Other Solid Carcinomas),> 10,> 1,0.0801,> 10,> 3,0.707,0.268,> 10,> 10,> 1,> 10,> 1,> 1,> 0.001,> 10,> 1,1.18,0.0282,> 10,> 10,> 0.3,> 3,> 1,> 2,> 1,0.856,> 10,–,–,–
NCI-H1688 (Small Cell Lung Carcinoma),> 10,> 1,0.533,> 10,> 3,2.54,> 1,> 10,> 10,> 1,> 10,> 1,> 1,> 0.001,> 10,> 1,8.31,> 0.3,> 10,> 10,> 0.3,> 3,> 1,> 2,> 1,> 10,> 10,> 10,–,–
PA-TU-8902 (Pancreatic Carcinoma),> 10,> 1,0.693,> 10,> 3,> 3,> 1,> 10,> 10,> 1,> 10,> 1,> 1,> 0.001,> 10,> 1,3.55,> 0.3,> 10,> 10,> 0.3,> 3,> 1,> 2,> 1,> 10,> 10,> 10,–,–
RCC10RGB (Kidney Carcinoma),> 10,> 1,0.851,> 10,1.01,2.62,> 1,> 10,> 10,> 1,> 10,> 1,> 1,> 0.001,> 10,> 1,3.25,0.101,7.99,> 10,> 0.3,> 3,0.753,0.435,> 1,3.46,> 10,–,–,–
SKN-3 (Head and Neck Carcinoma),> 10,> 1,0.38,> 10,> 3,1.53,> 1,> 10,> 10,> 1,> 10,> 1,> 1,> 0.001,> 10,> 1,9.18,0.251,> 10,> 10,> 0.3,> 3,> 1,> 2,> 1,> 10,> 10,> 10,–,–
SNU-61 (Colorectal Carcinoma),> 10,> 1,> 1,> 10,> 3,–,> 1,> 10,> 10,> 1,> 10,> 1,> 1,> 0.001,> 10,> 1,> 10,> 0.3,> 10,> 10,> 0.3,–,0.529,> 2,> 1,> 10,> 10,–,> 1,> 1
TYK-nu (Ovarian Carcinoma),> 10,> 1,0.0572,5.37,> 3,0.763,> 1,> 10,> 10,> 1,4.36,> 1,0.28,> 0.001,> 10,> 1,> 10,0.0108,> 10,> 10,> 0.3,> 3,0.301,> 2,> 1,> 10,> 10,> 10,–,–
U-118-MG (Low Grade Glioma),> 10,> 1,0.188,> 10,> 3,2.74,> 1,> 10,> 10,> 1,> 10,> 1,> 1,> 0.001,8.88,> 1,6.1,0.0141,> 10,> 10,> 0.3,> 3,> 1,> 2,> 1,> 10,> 10,–,–,–
